How the values were obtained:
Type in all cases: cell-based, human
MES SA = experiment: Cytotoxicity assay (72 hour killing assay, CellTiter-Glo), MES SA; settings: Homo sapiens, MES-SA, 72 h, read-out: Cancer cell lines IC50 (nM) MES SA
Protocol: (§1) Cells were cultured in a T75 flask to ˜50-80% confluency and harvested with trypsin into a single cell suspension. Five hundred (500) cells per well were seeded in tissue culture plates in 50 μL/well culture media and incubated at 37° C. for 18-24 h. Compounds were diluted as 400× final desired concentrations in DMSO. Serial dilutions in DMSO were then diluted in culture media for a final DMSO concentration of 0.25% and 50 μL/well of the final dilution was added to the cells (Vf=100 μL). Upon plating and treatment, cells were returned to the incubator for an additional 72 hours. CellTiter-Glo reagent was prepared per manufacturer's instructions and added at 100 μL/well to the cultures. CellTiter-Glo allows for relative enumeration of metabolically active cells by quantifying intracellular ATP concentrations. After 5 minutes of incubation with CellTiter-Glo at ambient room temperature, 125 μL/well of the Cell Titer glo/cell lysate solution was transferred into black assay plates, which were then read in a luminometer within 30 minutes.
(§2) MES SA and MES SA/Dx cells are uterine sarcoma. MES SA Dx cell line was generated from MES SA to achieve upregulation of MDR1.

MES SA DX = experiment: Cytotoxicity assay (72 hour killing assay, CellTiter-Glo), MES SA DX; settings: Homo sapiens, MES-SA, 72 h, read-out: Cancer cell lines IC50 (nM) MES SA DX
Protocol: as §1, §2

HEK 293T = experiment: Cytotoxicity assay (72 hour killing assay, CellTiter-Glo), HEK 293T; settings: Homo sapiens, HEK-293T, 72 h, read-out: Cancer cell lines IC50 (nM) HEK 293T
Protocol: as §1
293T cells are human embryonic kidney cell line.

SMILES	IC50 (MES SA) [nM]	IC50 (MES SA DX) [nM]	IC50 (HEK 293T) [nM]
CC(=O)O[C@@H](C)/C=C\C(=O)N[C@@H]1C[C@H](C)[C@H](C/C=C(C)/C=C/[C@H]2O[C@H](CC(=O)O)C[C@@]3(CO3)[C@@H]2O)O[C@@H]1C [Compound 1, Thailanstatin A]	419	> 400	296
COC(=O)C[C@@H]1C[C@@]2(CO2)[C@H](O)[C@@H](/C=C/C(C)=C/C[C@@H]2O[C@H](C)[C@H](NC(=O)/C=C\[C@H](C)OC(C)=O)C[C@@H]2C)O1 [Compound 2, Thailanstatin A methyl ester]	0.32	3.6	0.36
COC(=O)C[C@@H]1C[C@@]2(CO2)[C@H](O)[C@@H](/C=C/C(C)=C/C[C@H]2O[C@H](C)[C@H](NC(=O)/C=C\[C@H](C)OC(C)=O)C=C2C)O1 [Compound 30]	> 1000	> 1000	> 1000
CC(=O)O[C@@H](C)/C=C\C(=O)N[C@@H]1C[C@H](C)[C@H](C/C=C(C)/C=C/[C@H]2O[C@H](CC(=O)NC3CC3)C[C@@]3(CO3)[C@@H]2O)O[C@@H]1C [Compound 31, (2S,3Z)-5-({(2R,3R,5S,6S)-6-[(2E,4E)-5-{(3R,4R,5R,7S)-7-[2-(Cyclopropylamino)-2-oxoethyl]-4-hydroxy-1,6-dioxaspiro[2.5]oct-5-yl}-3-methylpenta-2,4-dien-1-yl]-2,5-dimethyltetrahydro-2H-pyran-3-yl}amino)-5-oxopent-3-en-2-yl acetate]	1.04	105	0.739
COC(=O)C[C@@H]1C[C@@]2(CO2)[C@H](O)[C@@H](/C=C/C(C)=C/C[C@@H]2O[C@H](C)[C@H](NC(=O)/C=C\[C@H](C)OC(C)=O)C=C2C)O1 [Compound 32]	> 1000	> 1000	> 1000
CCOC(=O)CCNC(=O)C[C@@H]1C[C@@]2(CO2)[C@H](O)[C@@H](/C=C/C(C)=C/C[C@@H]2O[C@H](C)[C@H](NC(=O)/C=C\[C@H](C)OC(C)=O)C[C@H]2C)O1 [Compound 33, Ethyl 3-({[(3R,5S,7R,8R)-7-{(1E,3E)-5-[(2S,3R,5R,6R)-5-{[(2Z,4S)-4-acetoxypent-2-enoyl]amino}-3,6-dimethyltetrahydro-2H-pyran-2-yl]-3-methylpenta-1,3-dien-1-yl}-8-hydroxy-1,6-dioxaspiro[2.5]oct-5-yl]acetyl}amino)propanoate]	512	> 2500	1480
COC(=O)C[C@@H]1C[C@@]2(CO2)[C@H](O)[C@@H](/C=C/C(C)=C/C[C@@H]2O[C@H](C)[C@H](NC(=O)/C=C\[C@H](C)OC(C)=O)C[C@H]2C)O1 [Compound 34, Methyl [(3R,5S,7R,8R)-7-{(1E,3E)-5-[(2S,3R,5R,6R)-5-{[(2Z,4S)-4-acetoxypent-2-enoyl]amino}-3,6-dimethyltetrahydro-2H-pyran-2-yl]-3-methylpenta-1,3-dien-1-yl}-8-hydroxy-1,6-dioxaspiro[2.5]-oct-5-yl]acetate]	649	> 1000	> 1000
CCOC(=O)CCNC(=O)C[C@@H]1C[C@@]2(CO2)[C@H](O)[C@@H](/C=C/C(C)=C/C[C@@H]2O[C@H](C)[C@H](NC(=O)/C=C\[C@H](C)OC(C)=O)C[C@@H]2C)O1 [Compound 35, Ethyl 3-({[(3R,5S,7R,8R)-7-{(1E,3E)-5-[(2S,3S,5R,6R)-5-{[(2Z,4S)-4-acetoxypent-2-enoyl]amino}-3,6-dimethyltetrahydro-2H-pyran-2-yl]-3-methylpenta-1,3-dien-1-yl}-8-hydroxy-1,6-dioxaspiro-[2.5]oct-5-yl]acetyl}amino)propanoatee]	6.9	261	2.2
COC(=O)C[C@@H]1C[C@@]2(CO2)[C@H](O)[C@@H](/C=C/C(C)=C/C[C@@H]2O[C@H](C)[C@H](NC(=O)/C=C\[C@H](C)OC(=O)N(C)C)C[C@@H]2C)O1 [Compound 36, Methyl [(3R,5S,7R,8R)-7-{(1E,3E)-5-[(2S,3S,5R,6R)-5-({(2Z,4S)-4-[(dimethylcarbamoyl)oxy]pent-2-enoyl}amino)-3,6-dimethyltetrahydro-2H-pyran-2-yl]-3-methylpenta-1,3-dien-1-yl}-8-hydroxy-1,6-dioxaspiro[2.5]oct-5-yl]acetate]	0.92	1.09	0.08
